The values below come from ChEMBL document CHEMBL4421728, “Bach1 Inhibitors in Combination with Nrf2 Activators and Pharmaceutical Compositions Thereof” (2017).

Experiment [1] concerns the target T1, Transcription regulator protein BACH1 (Homo sapiens) (UniProt O14867).
T1 sequence (whole entry): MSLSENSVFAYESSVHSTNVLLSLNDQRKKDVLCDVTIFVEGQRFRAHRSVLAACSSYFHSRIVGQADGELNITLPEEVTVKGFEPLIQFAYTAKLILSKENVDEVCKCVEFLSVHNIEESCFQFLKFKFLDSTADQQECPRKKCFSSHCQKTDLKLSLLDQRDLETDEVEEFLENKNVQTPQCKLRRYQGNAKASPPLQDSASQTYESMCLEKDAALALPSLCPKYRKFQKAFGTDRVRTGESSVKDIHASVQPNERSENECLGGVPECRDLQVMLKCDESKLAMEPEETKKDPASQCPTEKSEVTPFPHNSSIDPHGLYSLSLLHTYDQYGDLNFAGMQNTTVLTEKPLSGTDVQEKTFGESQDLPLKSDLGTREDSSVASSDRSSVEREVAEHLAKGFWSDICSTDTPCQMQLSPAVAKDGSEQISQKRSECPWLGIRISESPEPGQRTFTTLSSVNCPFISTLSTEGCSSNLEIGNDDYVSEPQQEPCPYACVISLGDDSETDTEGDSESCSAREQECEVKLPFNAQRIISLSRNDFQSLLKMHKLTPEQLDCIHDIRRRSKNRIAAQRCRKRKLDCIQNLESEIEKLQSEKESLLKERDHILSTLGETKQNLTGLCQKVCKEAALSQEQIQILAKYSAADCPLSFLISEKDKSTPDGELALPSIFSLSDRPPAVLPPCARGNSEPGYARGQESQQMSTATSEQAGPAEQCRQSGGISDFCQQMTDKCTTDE
The experiment can be described thus: Inhibition of Bach1 in normal human lung fibroblasts assessed as induction of HMOX protein expression at 2.5 uM incubated for 16 to 18 hrs in presence of 0.0024 uM Nrf2 activator Bardoxolone methyl by immunostaining relative to control.

Experiment [2] deals with T1, Transcription regulator protein BACH1 (Homo sapiens). Nature of the experiment: Inhibition of Bach1 in normal human lung fibroblasts assessed as induction of HMOX protein expression at 0.156 uM incubated for 16 to 18 hrs in presence of 0.312 uM Nrf2 activator Bardoxolone methyl by immunostaining relative to control.
For experiment [3] the target is unchanged. Nature of the experiment: Inhibition of Bach1 in normal human lung fibroblasts assessed as induction of HMOX protein expression at 0.078 uM incubated for 16 to 18 hrs in presence of 0.019 uM Nrf2 activator Bardoxolone methyl by immunostaining relative to control.
The target is the same in experiment [4]. The experiment can be described thus: Inhibition of Bach1 in normal human lung fibroblasts assessed as induction of HMOX protein expression at 0.019 uM incubated for 16 to 18 hrs by immunostaining relative to control.
Experiment [5] shares this target. The experiment can be described thus: Inhibition of Bach1 in normal human lung fibroblasts assessed as induction of HMOX protein expression at 0.019 uM incubated for 16 to 18 hrs in presence of 0.078 uM Nrf2 activator Bardoxolone methyl by immunostaining relative to control.
Experiment [6] shares this target. Nature of the experiment: Inhibition of Bach1 in normal human lung fibroblasts assessed as induction of HMOX protein expression at 2.5 uM incubated for 16 to 18 hrs in presence of 0.039 uM Nrf2 activator Bardoxolone methyl by immunostaining relative to control.
Experiment [7] shares this target. Nature of the experiment: Inhibition of Bach1 in normal human lung fibroblasts assessed as induction of HMOX protein expression at 2.5 uM incubated for 16 to 18 hrs in presence of 0.019 uM Nrf2 activator Bardoxolone methyl by immunostaining relative to control.
The target is the same in experiment [8]. Nature of the experiment: Inhibition of Bach1 in normal human lung fibroblasts assessed as induction of HMOX protein expression at 0.312 uM incubated for 16 to 18 hrs in presence of 0.0097 uM Nrf2 activator Bardoxolone methyl by immunostaining relative to control.
Experiment [9] shares this target. The experiment can be described thus: Inhibition of Bach1 in normal human lung fibroblasts assessed as induction of HMOX protein expression at 1.25 uM incubated for 16 to 18 hrs in presence of 0.312 uM Nrf2 activator Bardoxolone methyl by immunostaining relative to control.
The target is the same in experiment [10]. Nature of the experiment: Inhibition of Bach1 in normal human lung fibroblasts assessed as induction of HMOX protein expression at 0.156 uM incubated for 16 to 18 hrs in presence of 0.019 uM Nrf2 activator Bardoxolone methyl by immunostaining relative to control.
Experiment [11] has the same target. The experiment can be described thus: Inhibition of Bach1 in normal human lung fibroblasts assessed as induction of HMOX protein expression at 0.625 uM incubated for 16 to 18 hrs in presence of 0.039 uM Nrf2 activator Bardoxolone methyl by immunostaining relative to control.
For experiment [12] the target is unchanged. The experiment can be described thus: Inhibition of Bach1 in normal human lung fibroblasts assessed as induction of HMOX protein expression at 0.039 uM incubated for 16 to 18 hrs in presence of 0.039 uM Nrf2 activator Bardoxolone methyl by immunostaining relative to control.
Experiment [13] has the same target. Nature of the experiment: Inhibition of Bach1 in normal human lung fibroblasts assessed as induction of HMOX protein expression at 0.625 uM incubated for 16 to 18 hrs in presence of 0.0048 uM Nrf2 activator Bardoxolone methyl by immunostaining relative to control.
Experiment [14] shares this target. Nature of the experiment: Inhibition of Bach1 in normal human lung fibroblasts assessed as induction of HMOX protein expression at 0.078 uM incubated for 16 to 18 hrs in presence of 0.0048 uM Nrf2 activator Bardoxolone methyl by immunostaining relative to control.
For experiment [15] the target is unchanged. Nature of the experiment: Inhibition of Bach1 in normal human lung fibroblasts assessed as induction of HMOX protein expression at 0.625 uM incubated for 16 to 18 hrs in presence of 0.312 uM Nrf2 activator Bardoxolone methyl by immunostaining relative to control.
For experiment [16] the target is unchanged. The experiment can be described thus: Inhibition of Bach1 in normal human lung fibroblasts assessed as induction of HMOX protein expression at 0.019 uM incubated for 16 to 18 hrs in presence of 0.312 uM Nrf2 activator Bardoxolone methyl by immunostaining relative to control.
For experiment [17] the target is unchanged. Nature of the experiment: Inhibition of Bach1 in normal human lung fibroblasts assessed as induction of HMOX protein expression by measuring HMOX positive cells level at 0.039 uM in presence of 1 uM Nrf2 activator DMF incubated for 16 to 18 hrs by immunostaining relative to control DMSO. Further details: scale not given: the % may be the effect or the level left.

For experiment [18] the target is unchanged. The experiment can be described thus: Inhibition of Bach1 in normal human lung fibroblasts assessed as induction of HMOX protein expression by measuring HMOX positive cells level at 0.078 uM incubated for 16 to 18 hrs by immunostaining relative to control DMSO. Also noted: scale not given: the % may be the effect or the level left.
Experiment [19] shares this target. The experiment can be described thus: Inhibition of Bach1 in normal human lung fibroblasts assessed as induction of HMOX protein expression by measuring HMOX positive cells level at 0.039 uM in presence of 30 uM Nrf2 activator DMF incubated for 16 to 18 hrs by immunostaining relative to control DMSO. Further details: scale not given: the % may be the effect or the level left.

The target is the same in experiment [20]. Nature of the experiment: Inhibition of Bach1 in normal human lung fibroblasts assessed as induction of HMOX protein expression by measuring HMOX positive cells level at 0.039 uM in presence of 0.3 uM Nrf2 activator DMF incubated for 16 to 18 hrs by immunostaining relative to control DMSO. Also noted: scale not given: the % may be the effect or the level left.

As for `CNC(=O)c1ccc2c(c1)nc(Nc1nc3ccc(OC(F)(F)F)cc3s1)n2C`, the fold change (FC) turned out to be 18.8 in experiment [1]; 16 in [2]; 13.2 in experiment [3]; 0.97 in [4]; 22.3 in experiment [5]; 14.7 in experiment [6]. The fold change (FC) in [7] was found to be 17; in experiment [8] it was 16.4; in [9] it was 10.5; in experiment [10], 15.9; in [11], 17.2; in [12], 14.7. Moreover, the fold change (FC) was determined as 17.1 in experiment [13], 4.72 in experiment [14], 12.7 in [15] and 17.2 in [16].
As for `Cn1c(Nc2nc3ccc(C(F)(F)F)cc3s2)nc2cc(C(=O)NCCOCCO)ccc21`, the Activity was found to be 38.7% in experiment [17], 74% in experiment [18], 91.9% in [19] and 18.7% in experiment [20]. For the same compound, in experiment [4], the fold change (FC) was 2.08.
Taken in the same sequence, the figures for `COCCNC(=O)c1cnc2c(c1)nc(Nc1nc3ccc(OC(F)(F)F)cc3s1)n2C` were 23.1%, 8.23%, 87.5%, 13% and 1.24.
`CN(C)C(=O)CNC(=O)c1ccc2c(c1)nc(Nc1nc3ccc(C(F)(F)F)cc3s1)n2C`: the Activity in experiment [17] stood at 23.5%; in experiment [18], 7.12%; in experiment [19] it was 90.4%; in experiment [20], 12.8%. Moreover, the fold change (FC) in [4] stood at 1.29.
